Active and inactive are the calls of the source. The calls are words filed in the database; no cut-off is given here. Numbered stars: 1 amine (or outer) side, 2 acyl side, 3 side chain; on linkers, the order of the positions; unused ones are H or OH. Square brackets hold non-standard residues; d marks the D form. Peptide text beside a SMILES is read from it. * marks the point of attachment. X6 = O=C1Cc2ccc(OCc3cn(N([C@@H](CS)C(=O)[*:2])[*:1])nn3)cc2C(=O)N1O; X3 = O=C1Cc2ccc(OCc3cn(N(CC(=O)[*:2])[*:1])nn3)cc2C(=O)N1O; X4 = C[C@@H](O)[C@@H](C(=O)[*:2])N(n1cc(CN[*:3])nn1)[*:1]; X7 = O=C([C@H](CS)N(n1cc(CCCC(=O)[*:3])nn1)[*:1])[*:2]; X1 = O=C([C@H](CS)N(n1cc(CN[*:3])nn1)[*:1])[*:2]; X5 = C[C@@H](C(=O)[*:2])N(n1cc(CN[*:3])nn1)[*:1]; X8 = O=C(NCCOCCOCCN*)c1ccc2c(c1)C(=O)N(O)C2=O; X2 = O=C1c2ccc(C(=O)*)cc2C(=O)N1O
Experiments:
Assay type in all cases: nucleic-acid assay
microRNA 21 [1] = assay: Inhibition of Dicer mediated [32P] pre-miRNA-21 (unknown origin) maturation assessed as cleavage of pre-miRNA at 1000 uM after 2.5 hrs by denaturating polyacrylamide gel electrophoresis
Pre-miRNA-29b = assay: Inhibition of Dicer mediated [32P] pre-miRNA-29b-1 (unknown origin) maturation assessed as cleavage of pre-miRNA at 1 mM after 2.5 hrs by denaturating polyacrylamide gel electrophoresis
microRNA 21 [2] = assay: Binding affinity to [32P]pre-miRNA-21(unknown origin) assessed as reduction in mobility by electrophoretic mobility shift assay
microRNA 21 [3] = assay: Inhibition of Dicer mediated [32P] pre-miRNA-21 (unknown origin) maturation assessed as cleavage of pre-miRNA at 10 uM after 2.5 hrs by denaturating polyacrylamide gel electrophoresis
microRNA 21 [4] = assay: Inhibition of Dicer mediated [32P] pre-miRNA-21 (unknown origin) maturation assessed as cleavage of pre-miRNA at 50 uM after 2.5 hrs by denaturating polyacrylamide gel electrophoresis
microRNA 21 [5] = assay: Inhibition of Dicer mediated [32P] pre-miRNA-21 (unknown origin) maturation assessed as cleavage of pre-miRNA after 2.5 hrs by denaturating polyacrylamide gel electrophoresis
microRNA 21 [6] = assay: Inhibition of Dicer mediated [32P] pre-miRNA-21 (unknown origin) maturation assessed as cleavage of pre-miRNA at 1 to 100 uM after 2.5 hrs by denaturating polyacrylamide gel electrophoresis

Structure (SMILES)	inhibition (microRNA 21 [4])	IC50 (microRNA 21 [5]) [µM]	also measured
C#CCNC(=O)c1ccc2c(c1)C(=O)N(O)C2=O	–	–	inhibition (microRNA 21 [1]): inactive; inhibition (Pre-miRNA-29b): inactive
C[C@H](NC(=O)[C@H](CS)NC(=O)[C@H](C)NC(=O)[C@H](C)NC(=O)[C@H](CS)NC(=O)[C@@H](NC(=O)[C@@H](NC(=O)[C@H](C)NC(=O)CNC(=O)[C@H](C)NC(=O)CNC(=O)[C@@H](NC(=O)[C@H](C)NC(=O)[C@H](CS)Nn1cc(CNC(=O)c2ccc3c(c2)C(=O)N(O)C3=O)nn1)[C@@H](C)O)[C@@H](C)O)[C@@H](C)O)C(=O)O (H-[X1](X2)ATGAGATTCAACA-OH)	Active	4.3	Activity (microRNA 21 [2]): Active; inhibition (microRNA 21 [3]): Active
C[C@H](NC(=O)[C@H](CS)NC(=O)[C@H](C)NC(=O)[C@H](C)NC(=O)[C@H](CS)NC(=O)[C@@H](NC(=O)[C@@H](NC(=O)[C@H](C)NC(=O)CNC(=O)[C@H](C)NC(=O)CNn1cc(COc2ccc3c(c2)C(=O)N(O)C(=O)C3)nn1)[C@@H](C)O)[C@@H](C)O)C(=O)O (H-[X3]AGATTCAACA-OH)	–	0.5	inhibition (microRNA 21 [5]): Dose-dependent effect
C[C@H](NC(=O)[C@H](CS)NC(=O)[C@H](C)NC(=O)[C@H](C)NC(=O)[C@H](CS)NC(=O)[C@@H](NC(=O)[C@@H](NC(=O)[C@H](C)NC(=O)CNC(=O)[C@H](C)NC(=O)CNC(=O)[C@@H](Nn1cc(CNC(=O)c2ccc3c(c2)C(=O)N(O)C3=O)nn1)[C@@H](C)O)[C@@H](C)O)[C@@H](C)O)C(=O)O (H-[X4](X2)GAGATTCAACA-OH)	Active	–	–
C[C@H](NC(=O)[C@H](CS)NC(=O)[C@H](C)NC(=O)[C@H](C)NC(=O)[C@H](CS)NC(=O)[C@@H](NC(=O)[C@@H](NC(=O)[C@H](C)NC(=O)CNC(=O)[C@H](C)Nn1cc(CNC(=O)c2ccc3c(c2)C(=O)N(O)C3=O)nn1)[C@@H](C)O)[C@@H](C)O)C(=O)O (H-[X5](X2)GATTCAACA-OH)	Active	–	–
C[C@H](NC(=O)[C@H](CS)NC(=O)[C@H](C)NC(=O)[C@H](C)NC(=O)[C@H](CS)NC(=O)[C@@H](NC(=O)[C@@H](NC(=O)[C@H](C)NC(=O)CNC(=O)[C@H](C)NC(=O)CNC(=O)[C@@H](NC(=O)[C@H](C)NC(=O)[C@H](CS)Nn1cc(COc2ccc3c(c2)C(=O)N(O)C(=O)C3)nn1)[C@@H](C)O)[C@@H](C)O)[C@@H](C)O)C(=O)O (H-[X6]ATGAGATTCAACA-OH)	–	3.3	–
C[C@H](NC(=O)[C@H](CS)NC(=O)[C@H](C)NC(=O)[C@H](C)NC(=O)[C@H](CS)NC(=O)[C@@H](NC(=O)[C@@H](NC(=O)[C@H](C)NC(=O)CNC(=O)[C@H](C)NC(=O)CNC(=O)[C@@H](NC(=O)[C@H](C)NC(=O)[C@H](CS)Nn1cc(CCCC(=O)NCCOCCOCCNC(=O)c2ccc3c(c2)C(=O)N(O)C3=O)nn1)[C@@H](C)O)[C@@H](C)O)[C@@H](C)O)C(=O)O (H-[X7](X8)ATGAGATTCAACA-OH)	–	–	inhibition (microRNA 21 [6]): inactive

Reference: ChEMBL document CHEMBL4622833, “Bifunctional small molecule-oligonucleotide hybrid as microRNA inhibitor” (Bioorg Med Chem, 2020)
